Laboratory results reported in patent publication US20260097105A1, “SYSTEMS, FORMULATIONS AND METHODS FOR GENERATING UNIVERSAL PEPTIDE/MHC COMPLEXES WITH ENGINEERED DISULFIDE CONNECTING THE HEAVY AND LIGHT CHAINS” (priority 2022, published 2026).

Key:
[1] = biological target: T1, MR1 (Homo sapiens, UniProt Q95460, C283S/G138C); experiment: Fluorescence polarization competitive ligand binding (JYM20, DCF-loaded open MR1); settings: 10 nM JYM20; 200 nM DCF-loaded open MR1; pH 7.4
T1 construct: made in house; host or cells: Escherichia coli BL21(DE3) per the general methods
Procedure: To optimize fluorescence polarization (FP), a direct binding assay between JYM20 and MR1 was conducted to determine the minimum concentration of MR1 and JYM20 required for a maximal signal, as well as the buffer conditions. The FP signal is generated by polarized excitation wavelengths, resulting in depolarized emission when JYM20 is free in solution (with low FP value). […] Because DCF is not a covalent binding ligand, the DCF-loaded open MR1 and JYM20 can together screen a wide range of cancer metabolites for MR1.
Briefly, a buffer consistent of 150 mM NaCl, 20 mM sodium phosphate, 0.05% Tween-20, pH 7.4 was used since Applicants don't need nonphysiologically acidic environment to break the Schiff base. A serial dilution of cancer metabolites in a range of 60-0.06 mM, which were selected from the preliminary in silico screening, was added to 200 nM MR1 and 10 nM JYM20 in a final volume of 100 μL. The kinetic association was monitored for 16 hours, and polarization measurements were recorded every 186 seconds. Excitation and emission values used to monitor the fluorescence of TAMRA-labeled peptides were 531 and 595 nm. All experiments were performed in triplicates at room temperature. Raw parallel (III) and perpendicular emission intensities (I⊥) were collected and converted to polarization (mP) values using the equation 1000*[(III−(G*I⊥))/(III+(G*I⊥))]. An optimized G-factor was determined to be 0.33 for TAMRA-labeled peptides in calculating baseline fluorescence. Non-linear regression fitting of one phase association allowed calculating plateau polarization (mP) values for each kinetic curve. Log transformed values of each peptide concentration were plotted against the plateau mP value, and an IC50 curve was fit using log (inhibitor) vs. response (three parameters) curve from GraphPad Prism v9^9.

[2] = test system: WT or open HLA-A*29:02/FTSDYYQLY; experiment: Fluorescence polarization IC50 competition assay; type: binding, human; settings: competitor vs FITCKLIDVFHQY
Text: Kinetic association measurements were collected as previously described. Non-linear regression fitting allowed calculating plateau polarization (mP) values for each kinetic curve. Log transformed values of each peptide concentration were plotted against the plateau mP value, and an IC50 curve was fit.

T1 sequence (Q95460 with tags, fused parts or gaps G138C/C283S): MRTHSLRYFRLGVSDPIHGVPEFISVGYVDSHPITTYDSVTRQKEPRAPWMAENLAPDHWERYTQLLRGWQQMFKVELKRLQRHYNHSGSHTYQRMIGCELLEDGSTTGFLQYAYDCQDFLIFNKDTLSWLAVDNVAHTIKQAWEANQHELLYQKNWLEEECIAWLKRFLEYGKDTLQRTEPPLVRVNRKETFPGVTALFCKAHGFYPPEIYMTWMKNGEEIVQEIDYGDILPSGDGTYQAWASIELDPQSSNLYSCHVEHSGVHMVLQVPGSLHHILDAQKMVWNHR
T1 sequence (as listed by the source partner): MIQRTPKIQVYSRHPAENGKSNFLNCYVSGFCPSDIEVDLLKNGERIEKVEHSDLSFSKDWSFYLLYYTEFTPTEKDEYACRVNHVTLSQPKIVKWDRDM

O=C(O)Cc1ccccc1Nc1c(Cl)cccc1Cl [DCF, diclofenac, reference compound]
relative binding affinities (IC50) to MR1 [1]: low-millimolar

ALIDVFHQY
IC50, open compared to WT [2]: same IC50

O=C(O)C1=C[C@@H](O)[C@@H](O)[C@H](O)C1 [SKA, shikimic acid]
relative binding affinities (IC50) to MR1 [1]: low-millimolar

O=C(O)C1=CC(=O)[C@@H](O)[C@H](O)C1 [3DA, 3-Dehydroshikimic acid]
relative binding affinities (IC50) to MR1 [1]: low-millimolar

O=c1ccn([C@@H]2O[C@H](COP(=O)(O)O)[C@@H](O)[C@H]2O)c(=O)[nH]1 [UMP, Uridine 5′-monophosphate]
relative binding affinities (IC50) to MR1 [1]: low-millimolar
